Measurements taken from article PMC11537999, “Identification of human pregnane X receptor antagonists utilizing a high-throughput screening platform” (Frontiers in Pharmacology, 2024).

Test system: CYP3A4 mRNA expression
Test: Co-treatment pharmacological assay: CYP3A4 mRNA by qRT-PCR in HepaRG cells co-treated with rifampicin
Format: cell-based, human
Settings: for inhibition of CYP3A4 mRNA expression under rifampicin co-treatment (in words): IC50, IC70 or IC90 concentration + 5 μM rifampicin
Experimental: Fully differentiated NoSpin™ HepaRG™ cells (Lonza, Walkersville, Maryland) were seeded into 12-well collagen-coated plates (Corning) at a density of 8 × 10^5 cells/well using Williams’ E medium (ThermoFisher) supplemented with HepaRG™ thawing and plating medium supplement (Lonza), 25 U/mL penicillin, and 25 μg/mL streptomycin (Invitrogen). The cells were then placed into a 37°C and 5% CO2 incubator for 3 days including a media change before treatment. Cells were then treated with the vehicle control (final concentration of 0.1% DMSO), the positive controls, or test compounds for 24 h before harvesting.
Total RNA was extracted from the cell lysate using an RNeasy Mini kit (Qiagen) according to the manufacturer’s instructions. RNA was reverse transcribed to cDNA using a High-Capacity RNA-to-cDNA kit (Applied Biosystems). CYP3A4 and CYP2B6 mRNA expression were both measured and normalized to the glyceraldehyde-3-phosphate dehydrogenase (GAPDH) housekeeping gene. Real-time PCR was completed using a QuantStudio Real-Time PCR system (Applied Biosystems) with TaqMan probes (CYP3A4 Assay ID: Hs00604506_m1, CYP2B6 Assay ID: Hs04183483_g1, GAPDH Assay ID: Hs99999905_m1, ThermoFisher Scientific, Waltham, MA). Following amplification, induction values were calculated using the equation: Fold = 2^−ΔΔCt, where ΔCt represents the difference in number of cycles required to reach the Ct threshold between CYP3A4 or CYP2B6 and GAPDH, and ΔΔCt represents the relative change in these differences between the control (DMSO) and treatment groups. Experimental data are expressed as a mean of triplicate values ±SD. Statistical analysis was performed using one-way analysis of variance with post hoc Dunnett’s analysis. The statistical significance values were set at p < 0.05 (*), p < 0.01 (**), and p < 0.001 (***).
As previously mentioned, HepG2 cells are not metabolically competent and therefore use of HepaRG cells or human primary hepatocytes is a better choice to confirm PXR antagonists. […]

| CYP3A4 mRNA expression, average level (15 μM compound + 5 μM rifampicin, DMSO = 1) | SMILES | inhibition of CYP3A4 mRNA expression under rifampicin co-treatment (in words) |
| --- | --- | --- |
| 0.6 fold | COc1cc(-c2cn(C3CCc4c(F)cccc4N(CC(F)(F)F)C3=O)nn2)ccc1-n1cnc(C)c1 (stereo not drawn) [GSM2] | clear concentration dependent inhibition of CYP3A4 mRNA expression |
| – | CC(=O)O[C@H]1C[C@@]2(C)[C@@H](C[C@@H](O)[C@H]3[C@@]4(C)CC[C@@H](O)[C@@H](C)[C@@H]4CC[C@@]32C)/C1=C(\CCC=C(C)C)C(=O)O [fusidic acid] | clear concentration dependent inhibition of CYP3A4 mRNA expression |
